Experimental data published in US20150073123A1, “SYNTHETIC PEPTIDES WITH A NON-NARCOTIC TYPE OF ANALGESIC EFFECT” (priority 2012, published 2015).
Where no end group is shown, it is not given here.

What was measured:
rats [1] = assay: Rat formalin test, intranasal administration of peptide 30 min before formalin; type: in vivo; conditions: Table 7; for Duration of the 1st peak of pain reaction: in s
Procedure: (§1) Analgesic activity of newly synthesized peptides was examined as follows. Rats weighing 180-200 g were suboccipitally injected with the study peptide under ether anesthesia using a microdispenser in 10 μl of normal saline. Control animals were similarly injected with the equal amount of normal saline. After 20 minutes, 50 mcl of formalin solution at a dilution of 1:50 was injected into the dorsal surface of the right hind paw. The time of peptide injection and formalin dilution has been developed earlier. Each rat was used only once. The most clear behavioral indicators of pain reaction were expressed in paw tucking, licking, nibbling and jolting. Moreover, the first acute reaction to pain lasting for 6-7 min in control animals was followed by the dormant period: a rat lowered its paw, grooming behavior and nibbling was stopped. Then the reaction was repeated with expression not less than the previous one—it was the second phase of pain reaction.
The moment of paw tucking (beginning of the 1st phase of pain reaction), duration of this reaction, duration of dormancy and time of onset of the second phase of reaction—repeated paw tucking or its absence—were visually recorded in order to obtain quantitative data. Peptide was injected 20 min prior to formalin injection in case of suboccipital method of peptide injection and 30 min prior to formalin injection in case of intranasal method. […]

rats [2] = assay: Rat formalin test, suboccipital injection of peptide 20 min before formalin; type: in vivo; conditions: for Duration of the first peak of pain reaction / Time of pain reaction onset: Table 2, suboccipital injection
Procedure: Analgesic activity of newly synthesized peptides was examined in the “formalin test” which allows discovering non-narcotic type of anesthesia (Wheeler-Aceto H., Porrea F., A. Cowan. The rat paw formalin test: comparison of noxious agents. Pain, 40 (1990), 229-238).
as §1
The moment of paw tucking (beginning of the 1st phase of pain reaction), duration of this reaction, duration of dormancy and time of onset of the second phase of reaction—repeated paw tucking or its absence—were visually recorded in order to obtain quantitative data. Peptide was injected 20 min prior to formalin injection in case of suboccipital method of peptide injection and 30 min prior to formalin injection in case of intranasal method.

rats [3] = conditions: earlier work of Kotin, Vlasov et al. 1988; cited from earlier work
[4] = earlier work; cited from earlier work
[5] = intranasal in citrate phosphate buffer, 30 min prior to formalin 2%, dose 10 μg

Row | Substance | Beginning of pain reaction (rats [1]; [5]) [s] | Beginning of pain reaction (rats [1]; intranasal, dose 0.1 μg) [s] | Beginning of the 2nd peak (rats [1]; intranasal, dose 0.1 μg) [min] | Duration of the 1st peak of pain reaction (rats [1]; intranasal, dose 0.1 μg) | Beginning of pain reaction (rats [1]; intranasal, dose 1 μg) [s] | Beginning of the 2nd peak (rats [1]; intranasal, dose 1 μg) | Duration of the 1st peak of pain reaction (rats [1]; intranasal, dose 1 μg) | Beginning of the 2nd peak (rats [1]; intranasal, dose 10 μg) [min] | Duration of the 1st peak of pain reaction (rats [1]; intranasal, dose 10 μg) | other results
1 | D-Thr-D-Glu-D-Leu-D-Lys-D-His-D-Leu-NH2 [Complete retro-inversion CT16-21] | 20 ± 9 | 126 | 16.2 ± 2.6 | 249 ± 20 | 12 ± 6 | 17.4 ± 2.9 min | 300 ± 46 | 14.4 ± 1.0 | 333 ± 9 | –
2 | LHKLQT [CT16-21] | – | – | – | – | – | – | – | – | – | Duration of the first peak of pain reaction (rats [2]; rats, dose 0.001 μg/rat): 394 (34) sec; Time of pain reaction onset (rats [2]; rats, dose 0.001 μg/rat): 17 (6) sec; Duration of the first peak of pain reaction (rats [2]; rats, dose 0.01 μg/rat): 328 (21) sec; Time of pain reaction onset (rats [2]; rats, dose 0.01 μg/rat): 19 (8) sec; Duration of the first peak of pain reaction (rats [2]; rats, dose 0.1 μg/rat): 263 (20) a < 0.001 sec; Time of pain reaction onset (rats [2]; rats, dose 0.1 μg/rat): 39 (8) a < 0.001 sec; Beginning of the 2nd peak (rats [2]; Table 3, dose 1 μg per rat): 21 ± 2 min; Duration of the 1st peak (rats [2]; Table 3, dose 1 μg per rat): 284 ± 20 s; Number of animals which do not have the 2nd peak of reaction (rats [2]; Table 3, dose 1 μg per rat): 4; Beginning of pain reaction (rats [2]; Table 3, dose 1 μg per rat, in s): 30 ± 6; Analgesic activity in the rat formalin test (in words) (rats [3]): high analgesic activity; Impact on calcium metabolism [4]: does not have immunologic activity, impact on calcium metabolism
3 | CGRP | – | – | – | – | – | – | – | – | – | Beginning of pain reaction (rats [2]; Table 4, dose 1 μg): 5 (2) sec; Beginning of the 2nd peak (rats [2]; Table 4, dose 1 μg): 17 (2) min; Duration of the 1st peak of pain reaction (rats [2]; Table 4, dose 1 μg): 402 (36); Analgesic activity in the formalin test (in words) (rats [2]; rats): does not have analgesic activity
4 | D-Thr-D-Glu-D-Leu-D-15 Lys-L-His-D-Leu-NH2 | 8 ± 3 | 48 ± 18 | 21.0 ± 5.3 | 300 ± 10 | 10 ± 2 | 12.5 ± 1.6, the min | 342 ± 26 | 15.0 ± 1.6 | 314 ± 32 | Number of rats that do not have the 2nd peak (rats [1]; intranasal, dose 1 μg, remark in the 2nd peak column): first one has none
